Measurements reported in patent US9751865B2, “Dihydro-hydantoin derivatives with herbicidal activity” (SYNGENTA PARTICIPATIONS AG, priority 2013, dated 2017).

Tests used:
Type in all cases: in vivo
Alopecurus myosuroides [1] = assay: Post-emergence herbicidal activity, ALOMY; set-up: key: 5=total damage to plant; 0=no damage to plant; conditions: application post-emergence, 1000 g/Ha, evaluated after 13 days, scale 0-5
Procedure: (§1) Seeds of a variety of test species were sown in standard soil in pots. After 8 days cultivation (post-emergence) under controlled conditions in a glasshouse (at 24/16° C., day/night; 14 hours light; 65% humidity), the plants were sprayed with an aqueous spray solution derived from the formulation of the technical active ingredient in acetone/water (50:50) solution containing 0.5% Tween 20 (polyoxyethelyene sorbitan monolaurate, CAS RN 9005-64-5). The test plants were then grown in a glasshouse under controlled conditions (at 24/16° C., day/night; 14 hours light; 65% humidity) and watered twice daily. After 13 days, the test was evaluated (5=total damage to plant; 0=no damage to plant).

Amaranthus retroflexus [2] = assay: Pre-emergence herbicidal activity, AMARE; set-up: key: 5=total damage to plant; 0=no damage to plant; conditions: application pre-emergence, 1000 g/Ha, evaluated after 13 days, scale 0-5
Procedure: as §1, with “After” for “After 8 days”, “for one day (pre-emergence)” for “(post-emergence)”

Setaria faberi [3] = assay: Post-emergence herbicidal activity, SETFA; set-up: key: 5=total damage to plant; 0=no damage to plant; conditions: application post-emergence, 1000 g/Ha, evaluated after 13 days, scale 0-5
Procedure: as §1

Abutilon theophrasti [4] = assay: Post-emergence herbicidal activity, ABUTH; set-up: key: 5=total damage to plant; 0=no damage to plant; conditions: application post-emergence, 1000 g/Ha, evaluated after 13 days, scale 0-5
Procedure: as §1

Amaranthus retroflexus [5] = assay: Post-emergence herbicidal activity, AMARE; set-up: key: 5=total damage to plant; 0=no damage to plant; conditions: application post-emergence, 1000 g/Ha, evaluated after 13 days, scale 0-5
Procedure: as §1

Alopecurus myosuroides [6] = assay: Pre-emergence herbicidal activity, ALOMY; conditions: application pre-emergence, 1000 g/Ha, evaluated after 13 days, scale 0-5
Procedure: as §1, with “After” for “After 8 days”, “for one day (pre-emergence)” for “(post-emergence)”

Zea mays [7] = assay: Post-emergence herbicidal activity, ZEAMX; set-up: key: 5=total damage to plant; 0=no damage to plant; conditions: application post-emergence, 1000 g/Ha, evaluated after 13 days, scale 0-5
Procedure: as §1

Echinochloa crus-galli [8] = assay: Pre-emergence herbicidal activity, ECHCG; set-up: key: 5=total damage to plant; 0=no damage to plant; conditions: application pre-emergence, 1000 g/Ha, evaluated after 13 days, scale 0-5
Procedure: as §1, with “After” for “After 8 days”, “for one day (pre-emergence)” for “(post-emergence)”

Abutilon theophrasti [9] = assay: Pre-emergence herbicidal activity, ABUTH; set-up: key: 5=total damage to plant; 0=no damage to plant; conditions: application pre-emergence, 1000 g/Ha, evaluated after 13 days, scale 0-5
Procedure: as §1, with “After” for “After 8 days”, “for one day (pre-emergence)” for “(post-emergence)”

Echinochloa crus-galli [10] = assay: Post-emergence herbicidal activity, ECHCG; set-up: key: 5=total damage to plant; 0=no damage to plant; conditions: application post-emergence, 1000 g/Ha, evaluated after 13 days, scale 0-5
Procedure: as §1

Setaria faberi [11] = assay: Pre-emergence herbicidal activity, SETFA; set-up: key: 5=total damage to plant; 0=no damage to plant; conditions: application pre-emergence, 1000 g/Ha, evaluated after 13 days, scale 0-5
Procedure: as §1, with “After” for “After 8 days”, “for one day (pre-emergence)” for “(post-emergence)”

Zea mays [12] = assay: Pre-emergence herbicidal activity, ZEAMX; set-up: key: 5=total damage to plant; 0=no damage to plant; conditions: application pre-emergence, 1000 g/Ha, evaluated after 13 days, scale 0-5
Procedure: as §1, with “After” for “After 8 days”, “for one day (pre-emergence)” for “(post-emergence)”

Row | Structure (SMILES) | ALOMY damage score (Alopecurus myosuroides [1]) | AMARE damage score (Amaranthus retroflexus [2]) | SETFA damage score (Setaria faberi [3]) | ABUTH damage score (Abutilon theophrasti [4]) | AMARE damage score (Amaranthus retroflexus [5]) | ALOMY damage score (Alopecurus myosuroides [6]) | ZEAMX damage score (Zea mays [7]) | ECHCG damage score (Echinochloa crus-galli [8]) | ABUTH damage score (Abutilon theophrasti [9]) | ECHCG damage score (Echinochloa crus-galli [10]) | SETFA damage score (Setaria faberi [11]) | ZEAMX damage score (Zea mays [12])
1 | CN1CC(O)N(c2nn(C)c(C(C)(C)C)c2C#N)C1=O (stereo not drawn) [Compound A5] | 3 | 4 | 3 | 4 | 5 | 1 | 2 | 0 | 2 | 3 | 0 | 0
2 | CC1C(O)N(c2nn(C)c(C(C)(C)C)c2C#N)C(=O)N1C (stereo not drawn) [Compound A6] | 4 | 2 | 5 | 5 | 5 | 1 | 2 | 2 | 5 | 4 | 2 | 1
3 | CC1C(O)N(c2cc(C(C)(C)C)n(C)n2)C(=O)N1C (stereo not drawn) [Compound A7] | 4 | 5 | 5 | 5 | 5 | 4 | 4 | 4 | 4 | 5 | 5 | 2
4 | CCOC1C(O)N(c2cc(C(F)(F)F)n(C)n2)C(=O)N1C (stereo not drawn) [Compound A8, 5-ethoxy-4-hydroxy-1-methyl-3-[1-methyl-5-(trifluoromethyl)pyrazol-3-yl]imidazolidin-2-one] | 5 | 5 | 5 | 5 | 5 | 4 | 4 | 5 | 5 | 5 | 4 | 2
5 | CCOC1C(O)N(c2cc(C(C)(C)C)n(C)n2)C(=O)N1C (stereo not drawn) [Compound A10] | 5 | 5 | 5 | 5 | 5 | 4 | 5 | 5 | 5 | 5 | 4 | 2
6 | CN1C(=O)N(c2cc(C(F)(F)F)n(C)n2)C(O)C1O (stereo not drawn) [Compound A12, 4,5-dihydroxy-1-methyl-3-[1-methyl-5-(trifluoromethyl)pyrazol-3-yl]imidazolidin-2-one] | 5 | 5 | 5 | 5 | 5 | 4 | 4 | 4 | 5 | 5 | 4 | 1
7 | CN1CC(O)N(c2cc(C(F)(F)F)n(C)n2)C1=O (stereo not drawn) [Compound A13] | 5 | 5 | 5 | 5 | 5 | 4 | 4 | 5 | 5 | 5 | 4 | 2
8 | CN1CC(O)N(c2cc3n(n2)CCC3(C)C)C1=O (stereo not drawn) [Compound A14] | 5 | 5 | 5 | 5 | 5 | 4 | 5 | 4 | 5 | 5 | 4 | 3
9 | C[C@@H]1C(O)N(c2cc(C(F)(F)F)n(C)n2)C(=O)N1C (stereo partly drawn) [Compound A15, (5R)-4-hydroxy-1,5-dimethyl-3-[1-methyl-5-(trifluoromethyl)pyrazol-3-yl]imidazolidin-2-one] | 5 | 5 | 5 | 5 | 5 | 2 | 5 | 2 | 5 | 5 | 3 | 1
10 | CC1NC(=O)N(c2cc(C(C)(C)C)n(C)n2)C1O (stereo not drawn) [Compound A17] | 3 | 5 | 2 | 4 | 4 | 3 | 0 | 4 | 4 | 3 | 3 | 1
